These results are taken from ChEMBL document CHEMBL1201862, “PubChem BioAssay data set” (2004).

SMILES strings stand for the structures.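 Five concentrations, 48 hours, 96-well plates. At the GI50, growth is halved.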 Calls of active or inactive are those of the source. Cut-off read from the data, not from the text of the source: active = GI50 up to about 1.1 µM and inactive = higher. Some results are limits rather than exact numbers.

Test systems include 786-0; A498; ACHN; CAKI-1; COLO 205; DU-145; HL-60; K562; KM12; MCF7; MDA-MB-231; NCI-H23; OVCAR-8; PC-3; RXF 393; SF-295; SK-MEL-2; SK-MEL-5; SN12C; UO-31.
Test in all cases: NCI-60 cell line screen, 48 h

For `CC(Cc1ccc(O)c(O)c1)C(C)Cc1ccc(O)c(O)c1` (stereo not drawn) [NORDIHYDROGUAIARETIC ACID], the GI50 was 17.2 µM (inactive) in the experiment with 786-0; 37 µM (inactive) in the experiment on A498; 16.1 µM (inactive) in the experiment on ACHN; 11.4 µM (inactive) in the experiment with CAKI-1; 18.7 µM (inactive) in the experiment on COLO 205; 18.8 µM (inactive) in the experiment with DU-145. For the same compound, the GI50 with HL-60 was 2.99 µM (inactive); with K562, 25.4 µM (inactive); with KM12 it was 17.1 µM (inactive); with MCF7 it was 20.2 µM (inactive); in the experiment with MDA-MB-231 it was > 39.1 µM (inactive); in the experiment on NCI-H23, 20.1 µM (inactive). Also, the GI50 was 17.4 µM (inactive) in the experiment with OVCAR-8; 21.9 µM (inactive) in the experiment with PC-3; 13.6 µM (inactive) in the experiment with RXF 393; 22.1 µM (inactive) in the experiment with SF-295; 18.5 µM (inactive) in the experiment on SK-MEL-2; 16.8 µM (inactive) in the experiment with SK-MEL-5. In addition, the GI50 in the experiment with SN12C is > 36.7 µM (inactive); with UO-31, 9.55 µM (inactive).

As to `O=C(C1=CCC2(CC1)OCCO2)N(Cc1ccccc1)c1ccccc1I`, the GI50 in the experiment with 786-0 was 18.8 µM (inactive); in the experiment on A498, 22.5 µM (inactive); with ACHN, 20.8 µM (inactive); in the experiment with CAKI-1 it was 24.5 µM (inactive); in the experiment with COLO 205, 17.7 µM (inactive); in the experiment on DU-145, 32.8 µM (inactive). Also, the GI50 with HL-60 was 18 µM (inactive); with K562, 43.2 µM (inactive); in the experiment with KM12, 14.1 µM (inactive); in the experiment on MCF7, 26.4 µM (inactive); in the experiment on MDA-MB-231, 20 µM (inactive); with NCI-H23, 19.7 µM (inactive). The GI50 was 16.4 µM (inactive) in the experiment with OVCAR-8; 26.3 µM (inactive) in the experiment on PC-3; 28.3 µM (inactive) in the experiment on RXF 393; 21.4 µM (inactive) in the experiment with SF-295; 21.2 µM (inactive) in the experiment on SK-MEL-2; 13.9 µM (inactive) in the experiment on SK-MEL-5. Besides, the GI50 in the experiment on SN12C is 24 µM (inactive); in the experiment on UO-31, 17.6 µM (inactive).

Take `CN1N=C(c2ccccc2)C(C(c2ccccc2[N+](=O)[O-])C2C(=O)N(C)N=C2c2ccccc2)C1=O` (stereo not drawn): the GI50 was > 70 µM (inactive) in the experiment on 786-0; > 81.8 µM (inactive) with A498; > 100 µM (inactive) in the experiment on ACHN; > 100 µM (inactive) in the experiment with CAKI-1; > 100 µM (inactive) in the experiment on COLO 205; > 100 µM (inactive) with DU-145. Moreover, the GI50 is 18.7 µM (inactive) in the experiment on HL-60; 33.9 µM (inactive) in the experiment on K562; > 75 µM (inactive) in the experiment on KM12; 47.1 µM (inactive) in the experiment on MCF7; > 100 µM (inactive) with MDA-MB-231; > 100 µM (inactive) with NCI-H23. Further, the GI50 with OVCAR-8 is 39.3 µM (inactive); with PC-3 it was 67.5 µM (inactive); in the experiment with RXF 393, 52 µM (inactive); in the experiment on SF-295, > 100 µM (inactive); with SK-MEL-2, 66.5 µM (inactive); in the experiment on SK-MEL-5 it was > 100 µM (inactive). The figures for the GI50 with SN12C and in the experiment with UO-31 were > 95.1 µM (inactive) and > 100 µM (inactive), respectively.

Regarding `N=C(N)c1ccc(/N=N\c2c(O)c(C(=O)Nc3ccccc3)cc3ccccc23)cc1`, the GI50 is 10.8 µM (inactive) with 786-0; > 100 µM (inactive) in the experiment with A498; 23.3 µM (inactive) in the experiment with ACHN; > 58.9 µM (inactive) in the experiment on CAKI-1; 29 µM (inactive) with COLO 205; > 100 µM (inactive) in the experiment on DU-145. Further, the GI50 with HL-60 is 7.98 µM (inactive); in the experiment with K562, 7.08 µM (inactive); in the experiment with KM12, 16.4 µM (inactive); with MCF7 it was 9.86 µM (inactive); in the experiment on MDA-MB-231, 8.04 µM (inactive); with NCI-H23 it was 21.9 µM (inactive). Also, the GI50 is 16.1 µM (inactive) with OVCAR-8; 17.9 µM (inactive) with PC-3; > 43.4 µM (inactive) in the experiment on RXF 393; > 60.3 µM (inactive) in the experiment with SF-295; 68.1 µM (inactive) in the experiment on SK-MEL-2; 22.4 µM (inactive) in the experiment with SK-MEL-5. For the same compound, the GI50 in the experiment with SN12C is 23.8 µM (inactive); in the experiment with UO-31, 75.5 µM (inactive).

For `O=c1c2cc(I)ccc2nc(SCc2nnco2)n1Cc1ccccc1`, the GI50 in the experiment on 786-0 was 35.7 µM (inactive); in the experiment with A498, 50.8 µM (inactive); in the experiment with ACHN, > 100 µM (inactive); with CAKI-1 it was > 100 µM (inactive); with COLO 205 it was > 100 µM (inactive); with DU-145 it was > 100 µM (inactive). The GI50 in the experiment on HL-60 is 17.4 µM (inactive); in the experiment on KM12, > 100 µM (inactive); in the experiment with MCF7, 81.1 µM (inactive); in the experiment on MDA-MB-231, 78.5 µM (inactive); in the experiment on NCI-H23, > 100 µM (inactive); in the experiment on OVCAR-8, > 100 µM (inactive). In addition, the GI50 in the experiment with PC-3 is > 100 µM (inactive); in the experiment with RXF 393, 58.1 µM (inactive); with SF-295 it was 98.2 µM (inactive); in the experiment on SK-MEL-2, 81.8 µM (inactive); in the experiment on SK-MEL-5, > 100 µM (inactive); with SN12C, 49.1 µM (inactive). Moreover, the GI50 with UO-31 was 1.39 µM (inactive).

As to `COC(=O)C12C3C4C1C1C2C3C41C(=O)NC(C)(C)CC(=O)O` (stereo not drawn), the GI50 with 786-0, in the experiment on A498, with ACHN, in the experiment on CAKI-1, with COLO 205 and in the experiment on DU-145 was > 100 µM (inactive) each time. For the same compound, the GI50 in the experiment with HL-60, in the experiment on KM12, in the experiment with MCF7, in the experiment on MDA-MB-231, with NCI-H23 and in the experiment on OVCAR-8 was > 100 µM (inactive) in each case. For the same compound, the GI50 in the experiment on PC-3, with RXF 393, in the experiment with SF-295, in the experiment with SK-MEL-2, in the experiment on SK-MEL-5 and in the experiment with SN12C was > 100 µM (inactive) each time. For the same compound, in the experiment on UO-31, the GI50 is > 100 µM (inactive).

As for `CCC12CN(C(=O)OC)C3C(Br)C1CCC(=O)C32` (stereo not drawn), the GI50 in the experiment with 786-0, in the experiment with A498, in the experiment on ACHN, with CAKI-1, in the experiment on COLO 205 and in the experiment on DU-145 was > 100 µM (inactive) throughout. For the same compound, the GI50 in the experiment on HL-60, in the experiment with K562, in the experiment with KM12, in the experiment with MCF7, with MDA-MB-231 and in the experiment with NCI-H23 was > 100 µM (inactive) in each case. Besides, the GI50 in the experiment with OVCAR-8, in the experiment with PC-3, with RXF 393, with SF-295, in the experiment with SK-MEL-2 and with SK-MEL-5 was > 100 µM (inactive) throughout. The GI50 in the experiment with UO-31 was > 100 µM (inactive).

With `Clc1ccc(C2=NNC(c3cccc(Cl)c3)C2)cc1` (stereo not drawn), the GI50 with 786-0 is 28.3 µM (inactive); with A498, 20 µM (inactive); in the experiment with CAKI-1, 26.2 µM (inactive); in the experiment on COLO 205, 15.9 µM (inactive); in the experiment with DU-145 it was 36.9 µM (inactive); in the experiment on HL-60, 34.5 µM (inactive). The GI50 is 37.4 µM (inactive) with K562; 35.9 µM (inactive) with KM12; 17.4 µM (inactive) with MCF7; 18.7 µM (inactive) with MDA-MB-231; 25.8 µM (inactive) with NCI-H23; 24.9 µM (inactive) in the experiment on PC-3. In addition, the GI50 in the experiment with RXF 393 was 31.3 µM (inactive); in the experiment on SF-295, 29.1 µM (inactive); in the experiment with SK-MEL-2 it was 0.362 µM (active); with SK-MEL-5 it was 14.8 µM (inactive); in the experiment with SN12C, 21.4 µM (inactive); with UO-31, 1.9 µM (inactive).

For the compound `COc1ccc(C(OCC2OC(n3cc(C)c(=O)[nH]c3=O)CC2n2cc(Cn3cc(I)c(=O)[nH]c3=O)nn2)(c2ccccc2)c2ccccc2)cc1` (stereo not drawn), the GI50 in the experiment with 786-0, in the experiment on A498, in the experiment with ACHN, in the experiment on CAKI-1, in the experiment with COLO 205 and with DU-145 was > 100 µM (inactive) throughout. The GI50 with HL-60 was 1.58 µM (inactive); in the experiment on KM12, 14.2 µM (inactive); with MCF7 it was > 100 µM (inactive); with MDA-MB-231 it was > 100 µM (inactive); in the experiment on NCI-H23, > 100 µM (inactive); in the experiment with OVCAR-8, > 100 µM (inactive). Besides, the GI50 in the experiment with PC-3, with RXF 393, with SF-295, with SK-MEL-2, in the experiment with SK-MEL-5 and in the experiment with SN12C was > 100 µM (inactive) each time. Besides, the GI50 in the experiment with UO-31 is > 100 µM (inactive).

Regarding `Nc1nc(N)c2ncn(-c3ccc(Cl)cc3)c2n1`, the GI50 in the experiment with 786-0 was 70.3 µM (inactive); with A498 it was 21.8 µM (inactive); in the experiment on ACHN it was 27.7 µM (inactive); with CAKI-1 it was 20.4 µM (inactive); in the experiment with COLO 205, 75.5 µM (inactive); with DU-145, 25 µM (inactive). The GI50 is 82 µM (inactive) in the experiment on HL-60; 26.8 µM (inactive) with KM12; 41.3 µM (inactive) in the experiment with MCF7; 63.2 µM (inactive) in the experiment on MDA-MB-231; 61 µM (inactive) in the experiment on NCI-H23; 30.1 µM (inactive) in the experiment on OVCAR-8. Also, the GI50 in the experiment with PC-3 is 35.7 µM (inactive); with RXF 393 it was 19.3 µM (inactive); in the experiment with SF-295, 33.7 µM (inactive); in the experiment on SK-MEL-2, 39.6 µM (inactive); in the experiment on SK-MEL-5, 23.6 µM (inactive); in the experiment on SN12C, 36.6 µM (inactive). Moreover, in the experiment with UO-31, the GI50 is 32.3 µM (inactive).
